{"source": "PubChem BioAssay AID1963975", "about": "(Molecular Pharmacology Branch, DTP, NCI, 2024)", "system": "624824-186-R-J2-PDC multicell spheroids, viability", "test": "Anticancer human tumor 624824-186-R-J2-PDC patient-derived colon adenocarcinoma cell line growth inhibition [PI3K]", "details": "for IC50: curve of first compound; for viability, T/C: stronger effect = lower value", "procedure,_shortened": "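Complex 3D spheroids (cancer cells + endothelial HUVEC + mesenchymal stem cells); drug pairs of targeted agent x inavolisib/alpelisib/duvelisib/copanlisib; half-log series from ~Cmax, max 10 microM if Cmax unknown; endpoint viability.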", "data": [{"molecule": "CC(C)NCC(C(=O)N1CCN(c2ncnc3c2C(C)CC3O)CC1)c1ccc(Cl)cc1", "note": "(configuration not stated) + Cc1nc(NC(=O)N2CCCC2C(N)=O)sc1-c1ccnc(C(C)(C)C(F)(F)F)c1;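 also: spheroids exposed to agents for 7 days before viability read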;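 as to viability, T/C: 100% = DMSO vehicle treated spheroids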", "values": [{"measurement": "IC50", "setting": "second compound 0.0316 µM", "result": "> 10", "unit": "µM"}, {"measurement": "IC50", "setting": "second compound 0.1 µM", "result": "> 10", "unit": "µM"}, {"measurement": "IC50", "setting": "second compound 0.316 µM", "result": "> 10", "unit": "µM"}, {"measurement": "IC50", "setting": "second compound 1 µM", "result": "> 10", "unit": "µM"}, {"measurement": "IC50", "setting": "second compound 3.16 µM", "result": "> 10", "unit": "µM"}, {"measurement": "IC50", "setting": "second compound 10 µM", "result": "> 10", "unit": "µM"}, {"measurement": "viability, T/C", "setting": "second compound 0.0316 µM, first compound 0.0316 µM", "result": 88.1, "unit": "%"}, {"measurement": "viability, T/C", "setting": "second compound 0.0316 µM, first compound 0.1 µM", "result": 106, "unit": "%"}, {"measurement": "viability, T/C", "setting": "second compound 0.0316 µM, first compound 0.316 µM", "result": 72.2, "unit": "%"}, {"measurement": "viability, T/C", "setting": "second compound 0.0316 µM, first compound 1 µM", "result": 85, "unit": "%"}, {"measurement": "viability, T/C", "setting": "second compound 0.0316 µM, first compound 3.16 µM", "result": 93.3, "unit": "%"}, {"measurement": "viability, T/C", "setting": "second compound 0.0316 µM, first compound 10 µM", "result": 68.2, "unit": "%"}, {"measurement": "viability, T/C", "setting": "second compound 0.1 µM, first compound 0.0316 µM", "result": 79.3, "unit": "%"}, {"measurement": "viability, T/C", "setting": "second compound 0.1 µM, first compound 0.1 µM", "result": 72.6, "unit": "%"}, {"measurement": "viability, T/C", "setting": "second compound 0.1 µM, first compound 0.316 µM", "result": 85, "unit": "%"}, {"measurement": "viability, T/C", "setting": "second compound 0.1 µM, first compound 1 µM", "result": 68.1, "unit": "%"}, {"measurement": "viability, T/C", "setting": "second compound 0.1 µM, first compound 3.16 µM", "result": 76.5, "unit": "%"}, {"measurement": "viability, T/C", "setting": "second compound 0.1 µM, first compound 10 µM", "result": 74.4, "unit": "%"}, {"measurement": "viability, T/C", "setting": "second compound 0.316 µM, first compound 0.0316 µM", "result": 78.2, "unit": "%"}, {"measurement": "viability, T/C", "setting": "second compound 0.316 µM, first compound 0.1 µM", "result": 68.2, "unit": "%"}, {"measurement": "viability, T/C", "setting": "second compound 0.316 µM, first compound 0.316 µM", "result": 77.5, "unit": "%"}, {"measurement": "viability, T/C", "setting": "second compound 0.316 µM, first compound 1 µM", "result": 75.3, "unit": "%"}, {"measurement": "viability, T/C", "setting": "second compound 0.316 µM, first compound 3.16 µM", "result": 79.6, "unit": "%"}, {"measurement": "viability, T/C", "setting": "second compound 0.316 µM, first compound 10 µM", "result": 64.9, "unit": "%"}, {"measurement": "viability, T/C", "setting": "second compound 1 µM, first compound 0.0316 µM", "result": 64.5, "unit": "%"}, {"measurement": "viability, T/C", "setting": "second compound 1 µM, first compound 0.1 µM", "result": 85.9, "unit": "%"}, {"measurement": "viability, T/C", "setting": "second compound 1 µM, first compound 0.316 µM", "result": 63.4, "unit": "%"}, {"measurement": "viability, T/C", "setting": "second compound 1 µM, first compound 1 µM", "result": 86.4, "unit": "%"}, {"measurement": "viability, T/C", "setting": "second compound 1 µM, first compound 3.16 µM", "result": 76.5, "unit": "%"}, {"measurement": "viability, T/C", "setting": "second compound 1 µM, first compound 10 µM", "result": 75.4, "unit": "%"}, {"measurement": "viability, T/C", "setting": "second compound 3.16 µM, first compound 0.0316 µM", "result": 78.2, "unit": "%"}, {"measurement": "viability, T/C", "setting": "second compound 3.16 µM, first compound 0.1 µM", "result": 79.8, "unit": "%"}, {"measurement": "viability, T/C", "setting": "second compound 3.16 µM, first compound 0.316 µM", "result": 81.3, "unit": "%"}, {"measurement": "viability, T/C", "setting": "second compound 3.16 µM, first compound 1 µM", "result": 82.2, "unit": "%"}, {"measurement": "viability, T/C", "setting": "second compound 3.16 µM, first compound 3.16 µM", "result": 68, "unit": "%"}, {"measurement": "viability, T/C", "setting": "second compound 3.16 µM, first compound 10 µM", "result": 55.9, "unit": "%"}, {"measurement": "viability, T/C", "setting": "second compound 10 µM, first compound 0.0316 µM", "result": 73.5, "unit": "%"}, {"measurement": "viability, T/C", "setting": "second compound 10 µM, first compound 0.1 µM", "result": 66.6, "unit": "%"}, {"measurement": "viability, T/C", "setting": "second compound 10 µM, first compound 0.316 µM", "result": 58.1, "unit": "%"}, {"measurement": "viability, T/C", "setting": "second compound 10 µM, first compound 1 µM", "result": 62.5, "unit": "%"}, {"measurement": "viability, T/C", "setting": "second compound 10 µM, first compound 3.16 µM", "result": 63.7, "unit": "%"}, {"measurement": "viability, T/C", "setting": "second compound 10 µM, first compound 10 µM", "result": 55.8, "unit": "%"}]}]}
